The values that follow come from PubChem BioAssay (NCI).

Test systems include CCRF-CEM leukemia; HOP-62 NSCLC; HOP-92 NSCLC; M14 melanoma; NCI/ADR-RES ovarian; OVCAR-3 ovarian; RXF 393 renal; SK-MEL-28 melanoma; TK-10 renal; UO-31 renal.
Experiment in all cases: inhibition of tumour cell growth, NCI panel, 48 h

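Cells were grown in 96-well plates and exposed to each compound for 48 hours at five concentrations; endpoints were interpolated linearly between bracketing concentrations, or set to the highest concentration if not reached. At the GI50, growth is halved. TGI denotes the concentration required for complete inhibition of growth.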 Bounds are passed on as bounds.

`O=C(O)/C(Cc1cn[nH]n1)=N\O`: the TGI in the experiment with CCRF-CEM leukemia, in the experiment on HOP-62 NSCLC, in the experiment on HOP-92 NSCLC, with M14 melanoma, in the experiment on NCI/ADR-RES ovarian and with OVCAR-3 ovarian was more than 100 µM each time. Besides, the TGI in the experiment on RXF 393 renal, in the experiment on SK-MEL-28 melanoma, in the experiment on TK-10 renal and with UO-31 renal was more than 100 µM each time.

For the compound `C=C1C(O)C2CC(C)(CO)C(=O)C2=C(CC(C)C)C12CC2` (configuration not stated), the GI50 in the experiment with CCRF-CEM leukemia was 58 µM; in the experiment with HOP-62 NSCLC it was more than 100000 nM; in the experiment with HOP-92 NSCLC it was 94.6 µM; in the experiment on M14 melanoma, 92.7 µM; in the experiment on NCI/ADR-RES ovarian, more than 100 µM; in the experiment with OVCAR-3 ovarian, 36.5 µM. For the same compound, the GI50 in the experiment with RXF 393 renal was more than 100 µM; with SK-MEL-28 melanoma, more than 100 µM; in the experiment on TK-10 renal, 52.9 µM; with UO-31 renal it was more than 100 µM. The TGI with CCRF-CEM leukemia was more than 100 µM; in the experiment on HOP-62 NSCLC it was more than 100 µM; with HOP-92 NSCLC it was more than 100 µM; with M14 melanoma, more than 100 µM; with NCI/ADR-RES ovarian it was more than 100 µM; with OVCAR-3 ovarian it was 92.4 µM. In addition, the TGI in the experiment on RXF 393 renal, in the experiment with SK-MEL-28 melanoma, with TK-10 renal and in the experiment with UO-31 renal was more than 100 µM throughout.

Consider `CN1Cc2ccccc2/C=C\c2ccccc21`, for which the TGI was more than 100 µM in the experiment with CCRF-CEM leukemia; more than 100 µM with HOP-62 NSCLC; 98.7 µM with HOP-92 NSCLC; more than 100 µM in the experiment on M14 melanoma; more than 100 µM in the experiment on NCI/ADR-RES ovarian; more than 100 µM in the experiment on OVCAR-3 ovarian. Further, the TGI in the experiment with RXF 393 renal, in the experiment on SK-MEL-28 melanoma, with TK-10 renal and in the experiment on UO-31 renal was more than 100 µM throughout.

Take `O=C(CN(/C=C/C(=O)C(F)(F)F)c1ccc(Cl)cc1)c1ccc(Cl)c(Cl)c1`: the GI50 with CCRF-CEM leukemia was 3.41 µM; in the experiment with HOP-62 NSCLC, 11500 nM; in the experiment with HOP-92 NSCLC, 3.21 µM; in the experiment on M14 melanoma, 6.51 µM; in the experiment on NCI/ADR-RES ovarian it was 6.03 µM; in the experiment on OVCAR-3 ovarian it was 3.23 µM. In addition, the GI50 in the experiment on RXF 393 renal is 14.1 µM; in the experiment on SK-MEL-28 melanoma, 16.7 µM; in the experiment with TK-10 renal, 7.38 µM; with UO-31 renal it was 5.65 µM. The TGI in the experiment with CCRF-CEM leukemia worked out at 11 µM; with HOP-62 NSCLC it was 23.8 µM; in the experiment with HOP-92 NSCLC, 14.5 µM; in the experiment on M14 melanoma, 19.3 µM; in the experiment with NCI/ADR-RES ovarian, 19.7 µM; in the experiment with OVCAR-3 ovarian, 11.3 µM. In addition, the TGI in the experiment on RXF 393 renal stood at 36.1 µM; in the experiment with SK-MEL-28 melanoma, 45 µM; in the experiment on TK-10 renal, 20.1 µM; in the experiment with UO-31 renal it was 18.8 µM.

`CSc1nc2nc3c(nc2c(=O)n1C)C(=O)c1ccccc1C3=O`: the GI50 with CCRF-CEM leukemia is 0.259 µM; in the experiment with HOP-62 NSCLC, 97 nM; with HOP-92 NSCLC it was 0.476 µM; in the experiment with M14 melanoma, 0.0994 µM; in the experiment on NCI/ADR-RES ovarian, 0.253 µM; with OVCAR-3 ovarian it was 0.0378 µM. Further, the GI50 was 0.253 µM in the experiment with RXF 393 renal, 0.188 µM in the experiment with SK-MEL-28 melanoma, 0.766 µM in the experiment on TK-10 renal and 0.236 µM in the experiment with UO-31 renal. The TGI in the experiment on CCRF-CEM leukemia was 0.794 µM; in the experiment on HOP-62 NSCLC it was 0.413 µM; with HOP-92 NSCLC, 2.59 µM; in the experiment on M14 melanoma, 0.252 µM; with NCI/ADR-RES ovarian, 0.938 µM; in the experiment with OVCAR-3 ovarian, 0.21 µM. The TGI in the experiment on RXF 393 renal worked out at 0.819 µM; in the experiment on SK-MEL-28 melanoma, 0.452 µM; in the experiment with TK-10 renal, 2.1 µM; in the experiment on UO-31 renal, 0.768 µM.

Turning to `CS(=O)(=O)OCCCNCCCOS(C)(=O)=O`, the TGI with CCRF-CEM leukemia was determined as 3130 µM; with HOP-62 NSCLC it was 6030 µM; with HOP-92 NSCLC, 4400 µM; in the experiment on M14 melanoma, 5050 µM; in the experiment with NCI/ADR-RES ovarian, 6040 µM; with OVCAR-3 ovarian it was 7600 µM. Besides, the TGI in the experiment on RXF 393 renal was 5480 µM; in the experiment with SK-MEL-28 melanoma it was 7560 µM; with TK-10 renal it was 6930 µM; with UO-31 renal, 6430 µM.

As to `CCCc1cc(=O)n2c(C(=O)Nc3ccc(F)cc3)c(C(=O)Nc3ccc(F)cc3)sc2n1`, the GI50 in the experiment with CCRF-CEM leukemia was more than 160 µM; in the experiment with HOP-62 NSCLC it was 2290 nM; in the experiment on HOP-92 NSCLC it was 5.27 µM; with M14 melanoma, 23.5 µM; with NCI/ADR-RES ovarian, 134 µM; in the experiment with OVCAR-3 ovarian, 22.9 µM. For the same compound, the GI50 in the experiment on RXF 393 renal is 4.41 µM; with SK-MEL-28 melanoma, 56.5 µM; in the experiment with TK-10 renal, 32.3 µM; with UO-31 renal, 27.6 µM. Also, the TGI in the experiment on CCRF-CEM leukemia was more than 160 µM; in the experiment with HOP-62 NSCLC, 33.2 µM; in the experiment on HOP-92 NSCLC it was 18.6 µM; in the experiment with M14 melanoma it was 81 µM; in the experiment on NCI/ADR-RES ovarian, more than 160 µM; in the experiment on OVCAR-3 ovarian it was 49.8 µM. Besides, the TGI is 13 µM in the experiment with RXF 393 renal, more than 160 µM with SK-MEL-28 melanoma, 74.7 µM in the experiment on TK-10 renal and 101 µM with UO-31 renal.

As for `C#C[C@@]1(O)[C@@H](CO)O[C@@H](n2cc(I)c3c(N)ncnc32)[C@@H]1O`, the GI50 in the experiment on CCRF-CEM leukemia is 0.271 µM; with HOP-62 NSCLC it was 747 nM; in the experiment with HOP-92 NSCLC, 0.0736 µM; in the experiment with M14 melanoma, 0.49 µM; in the experiment with NCI/ADR-RES ovarian it was 0.0731 µM; in the experiment on RXF 393 renal, 0.44 µM. Further, the GI50 was 1.96 µM in the experiment on SK-MEL-28 melanoma, 0.551 µM in the experiment with TK-10 renal and 0.0901 µM in the experiment with UO-31 renal. Further, the TGI is more than 100 µM in the experiment with CCRF-CEM leukemia; 8.69 µM in the experiment on HOP-62 NSCLC; 2.22 µM in the experiment with HOP-92 NSCLC; 9.51 µM in the experiment on M14 melanoma; 7.9 µM with NCI/ADR-RES ovarian; 2.26 µM in the experiment on RXF 393 renal. Further, the TGI in the experiment with SK-MEL-28 melanoma came to 11.4 µM; in the experiment with TK-10 renal, 5.51 µM; in the experiment with UO-31 renal it was 3.19 µM.

On to `COc1cc(/C=C/c2ccc(O)c(OC)c2)cc(OC)c1`, for which the TGI with CCRF-CEM leukemia was more than 100 µM; in the experiment with HOP-62 NSCLC, more than 100 µM; in the experiment with HOP-92 NSCLC, 49.7 µM; in the experiment on M14 melanoma, 70.8 µM; in the experiment with NCI/ADR-RES ovarian, more than 100 µM; with RXF 393 renal it was more than 100 µM. The TGI with SK-MEL-28 melanoma was more than 100 µM; in the experiment with TK-10 renal it was 68.3 µM; in the experiment with UO-31 renal it was 66.2 µM.
